Values quoted from earlier work as cited in US5925665A, “Imidazoline compounds” (Adir Et Compagnie, priority 1996, dated 1999).

System: mice
Details: general statement on reference products

SMILES	duration of immobility, known antidepressants
CNCCCN1c2ccccc2CCc2ccccc21 [desipramine]	decrease this duration of immobility
CN(C)CCCN1c2ccccc2CCc2ccccc21 [imipramine]	decrease this duration of immobility
